One experiment deals with rat PARG (Rattus norvegicus (Rat), UniProt Q9QYM2). The experiment in a line: High-throughput screening with the TR-FRET PAR turnover assay. The format is biochemical. The conditions noted are these: 6.7 μM compound; 12.5 nM and 25 nM rat PARG. As for the experimental part:
The NCI Diversity Set II library (1,990 compounds) was screened against rat PARG then human PARG was used to validate and optimize PARG inhibitors. The accuracy of the screen was determined by the calculated Z-scores of control reactions, which were between 0.6 and 0.8 throughout the plates, indicative of high reproducibility (FIG. 2a). […] The rate of TR-FRET signal loss in the presence of each candidate inhibitor was compared to that of control reactions containing DMSO only (FIG. 2b). Initially, 104 compounds were selected that inhibited PARG enzymatic activity at both enzyme concentrations. Thirty-nine of these compounds were discarded as they altered fluorescence intensity of donor or acceptor (F520 and F495) by >40% at the first time point. […] For the selected compounds, gel-based assays were performed to directly monitor inhibition of PARP1 dePARylation by PARG (FIG. 2c).
TR-FRET PAR turnover assay. For a high-throughput screening (HTS) of PARG inhibitors, a high-throughput PARG activity assay was developed using the TR-FRET system. Briefly, the fluorescein molecule (FITC) was enzymatically incorporated into PARP1 in a reaction containing PARP1C (2 μM), the PARP1 DBD (2 μM), a 24 mer nicked DNA oligo (2 μM), and a mixture of unlabeled NAD^+ (Sigma) and FITC-NAD^+ (Trevigen) substrates (total NAD+concentration of 100 μM).
After incubation for 1 hr at 37° C., PARylated PARP1 was desalted using a PD-10 desalting column (GE healthcare) in a buffer containing 25 mM Tris-HCl (pH 7.5), 50 mM NaCl, and 0.01% NP-40 and used as the FRET acceptor. The biotin-tagged BRCT1 domain of XRCC1 (BRCT1, 5 nM) was conjugated with an equimolar concentration of Tb^3+-chelated streptavidin (Life Technologies) in TR-FRET assay buffer (FRET donor). […] The reaction was started by the addition of the FRET pair of FITC-labeled PARP1 (42 nM) and Tb^3+-BRCT1 (5 nM). The TR-FRET signal was subsequently monitored for 60 min.
High-throughput screening of PARG inhibitors. Small molecule inhibitors of PARG were identified by high-throughput screening (HTS) using the TR-FRET PAR turnover assay. Compounds (final concentration of 6.7 μM) from the NCI Diversity Set II library (1,990 compounds) were predispensed into black polystyrene 384-well plates (Corning) using a Hummingbird liquid handler (Digilab). Then, 10 μL of rat PARG^385-972 (12.5 nM and 25 nM) was subsequently dispensed into plates using a multi-drop combi nL reagent dispenser (Thermo Scientific), and incubated with compounds for 1 hr at 4° C. The reaction was initiated by the addition of 20 μl of the premixed FRET pair of FITC-labeled PARP1 (42 nM) and Tb^3+-BRCT1 (5 nM), and the TR-FRET signal was monitored every four minutes for 40 min (11 data points). Hits were selected by visually comparing the rate of the TR-FRET signal decrease in each well to that of negative control reactions containing DMSO (FIG. 1b and see Text for details). The HTS was performed at the High-Throughput Screening Core (HTSC) at Washington University School of Medicine.
(In general: TR-FRET usually uses a lanthanide donor and a delayed reading to cut background.)

In the next experiment the test system is PARG. The settings on record: Falsig et al., 2004; read-out: IC50 of PARG inhibition; cited from earlier work.
Another experiment concerns the target human PARG (Homo sapiens (Human), UniProt Q86W56). The experiment in a line: Gel-based PARG activity assay. The format is biochemical. As for the experimental part:
FIGS. 9a & 9b show structure-activity relationships (SAR) of compounds from five main chemotypes. (FIG. 9a) A total of 34 representative HTS hits and commercially available analogues from each chemotype (FIG. 7 and FIG. 29) were analyzed using the gel-based PARG activity assay. This gel-based assay directly monitors the change of PARylation status of PARP1 as a substrate of PARG. […] The reaction was quenched after a 30 min incubation at room temperature by adding SDS-PAGE sample buffer. PARylated PARP1C runs as a smear on SDS-PAGE that is reduced to a single band by PARG treatment. […] (FIG. 9b) Quantification of the dose-response PARG inhibition by JA2-3 using the gel-based PARG activity assay. hPARG (1 nM) was preincubated with increasing concentrations (0.032-1 μM) of JA2-3 for 1 hr at room temperature before PARylated PARP1C (500 nM) was added. The reaction was quenched after a 30 min incubation at room temperature. PARylated PARP1C migrates slower than unmodified PARP1C and was quantified using ImageJ. To determine the IC50 value, the dose-response data were plotted as a function of JA2-3 concentration and fitted to the four-parameter logistic equation using SigmaPlot. The rate of the PARG-dependent signal loss in the TR-FRET PAR turnover assay is not equivalent to the steady-state rate of PAR turnover, because the TR-FRET assay can't detect signal loss until the length of PAR chains become shorter than 7 ADP-ribose units. Therefore, the gel-based PARG activity assay to accurately determine the IC50 values throughout the present disclosure.
Gel-based PARG activity assay. PARP1C (2 μM) is enzymatically auto-modified in a reaction containing the PARP1 DBD (2 μM), a 24 mer nicked DNA oligo (2 μM), and NAD+(300 μM) for 1 hr at 37° C., as described previously (Kim et al., 2012). Human PARG^389-976 (1 nM) was pre-incubated with compounds for 1 hr at room temperature. The reaction was initiated by addition of PARylated PARP1 (final concentration of 500 nM) and quenched after 30 min incubation at room temperature by adding SDS-PAGE sample buffer. The gel was visualized by sypro-ruby staining (Kim et al., 2012) and the retained PARylated PARP1C species were quantified using ImageJ (Schneider et al., 2012).
PARylated PARP1C that migrates slower than unmodified PARP1C was quantified. […] The IC50 values were determined by fitting the dose-response data for each compound to a four-parameter logistic equation using SigmaPlot (Systat Software Inc.).
To test specificity of JA2131, human PARG^389-976 (1 nM) was pre-incubated with JA2131 (5, 10, and 20 μM) in the presence and absence of 0.1% Triton-X 100 or 0.1 mg/ml BSA for 1 hr at room temperature. The reaction was initiated, quenched, visualized, and quantified as described above.

Where [1] appears, read: Table 1, PARG inhibition, read-out: IC50.
Setting [2] is: hPARG 1 nM, PARylated PARP1C 500 nM.
[3] abbreviates: hPARG 1 nM, PARylated PARP1C 500 nM, read-out: IC50 of PARG inhibition.

Consider 26 molecules from patent publication US12491188B2, “Small molecule PARG inhibitors and methods of use thereof” (Board of Regents, The University of Texas System, priority 2019, dated 2025).

SMILES strings stand for the structures. Values joined by “and” are separate entries in the source; they are usually repeats but may differ in a detail not shown here. Equal entries are not always repeated. Where two headings read alike, the source gives them in different places.

human PARG, sequence (Q86W56 389-976): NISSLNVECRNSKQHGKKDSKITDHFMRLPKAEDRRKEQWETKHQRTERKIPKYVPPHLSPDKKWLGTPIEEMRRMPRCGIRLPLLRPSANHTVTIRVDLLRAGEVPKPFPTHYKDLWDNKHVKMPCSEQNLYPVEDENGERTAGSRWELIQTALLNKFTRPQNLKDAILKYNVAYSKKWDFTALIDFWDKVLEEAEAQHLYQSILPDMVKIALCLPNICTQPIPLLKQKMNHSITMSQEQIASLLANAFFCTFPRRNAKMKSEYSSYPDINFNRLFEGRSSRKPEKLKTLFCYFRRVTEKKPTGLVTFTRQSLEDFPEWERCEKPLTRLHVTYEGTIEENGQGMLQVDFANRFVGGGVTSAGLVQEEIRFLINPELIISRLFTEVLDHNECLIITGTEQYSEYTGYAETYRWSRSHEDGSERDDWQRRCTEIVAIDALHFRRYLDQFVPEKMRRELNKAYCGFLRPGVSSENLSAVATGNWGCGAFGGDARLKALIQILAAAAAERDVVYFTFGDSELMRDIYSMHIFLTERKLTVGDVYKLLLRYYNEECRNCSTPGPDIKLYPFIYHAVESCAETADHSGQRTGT
rat PARG, sequence (Q9QYM2 385-972): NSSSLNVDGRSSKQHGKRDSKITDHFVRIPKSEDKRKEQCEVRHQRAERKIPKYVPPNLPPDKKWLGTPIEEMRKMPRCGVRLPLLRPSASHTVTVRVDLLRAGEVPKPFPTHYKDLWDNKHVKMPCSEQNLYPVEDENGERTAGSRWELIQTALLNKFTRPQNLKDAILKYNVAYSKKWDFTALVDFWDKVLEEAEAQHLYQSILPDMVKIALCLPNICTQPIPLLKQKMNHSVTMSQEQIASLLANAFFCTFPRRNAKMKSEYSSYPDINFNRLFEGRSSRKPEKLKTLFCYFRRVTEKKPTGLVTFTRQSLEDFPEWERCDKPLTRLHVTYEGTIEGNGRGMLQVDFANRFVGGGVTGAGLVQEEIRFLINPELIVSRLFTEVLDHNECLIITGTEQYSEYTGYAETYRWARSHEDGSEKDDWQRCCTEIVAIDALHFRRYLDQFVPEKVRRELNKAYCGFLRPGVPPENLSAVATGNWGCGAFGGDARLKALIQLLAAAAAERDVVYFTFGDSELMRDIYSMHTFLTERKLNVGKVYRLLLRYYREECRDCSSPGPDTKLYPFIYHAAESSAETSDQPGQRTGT

With `Cc1cc(O)c(-c2cc(O)c(C)cc2O)cc1O` [Compound 2805], the “~100% PARG inhibition at both 12.5 nM and 25 nM” value (“~100% PARG inhibition” for short) at rat PARG is “Yes”.
Still for that read-out and setting: the same measure for `CCC(=O)OCN1C(=O)C=CC1=O` [Compound 19630]: “Yes”; for `Cc1cc(N)c2cc(OCCOc3ccc4nc(C)cc(N)c4c3)ccc2n1` [Compound 22907]: “Yes”.
In the case of `O=C1C(Cl)=C(Nc2ccc(S(=O)(=O)Nc3ccccn3)cc2)C(=O)c2ccccc21` [Compound 45382], the “~100% PARG inhibition” value on rat PARG is “Yes”.
Same read-out and setting: the same measure for `O=C1C=CC(=Nc2cccc3c(N=C4C=CC(=O)O4)cccc23)O1` [Compound 69575]: “Yes”.
Same read-out and setting: the same measure for `O=S(=O)(O)c1cc(O)c2c(N=Cc3ccccc3O)cc(S(=O)(=O)O)cc2c1` [Compound 88947]: “Yes”.
The same measure, in the same setting: the same measure for `O=c1[nH][nH]c(=S)c(=O)[nH]1` [Compound 107684]: “Yes”; for `Cc1ccc(C2=C(Cl)C(=O)C(c3ccc(C)cc3)=C(Cl)C2=O)cc1` [Compound 121838]: “Yes”.
As for `O=[N+]([O-])c1ccc(S(=O)(=O)Cc2ccccc2)c2nonc12` [Compound 228148], the “~100% PARG inhibition” value on rat PARG is “Yes”.
Turning to `FC(F)(F)c1nc2ccc(SSc3ccc4nc(C(F)(F)F)[nH]c4c3)cc2[nH]1` [Compound 659162], the “~100% PARG inhibition” value at rat PARG is “Yes”.
For `O=C(OC[C@H]1O[C@@H](OC(=O)c2cc(O)c(O)c(OC(=O)c3cc(O)c(O)c(O)c3)c2)[C@H](OC(=O)c2cc(O)c(O)c(OC(=O)c3cc(O)c(O)c(O)c3)c2)[C@@H](OC(=O)c2cc(O)c(O)c(OC(=O)c3cc(O)c(O)c(O)c3)c2)[C@@H]1OC(=O)c1cc(O)c(O)c(OC(=O)c2cc(O)c(O)c(O)c2)c1)c1cc(O)c(O)c(OC(=O)c2cc(O)c(O)c(O)c2)c1` [Gallotannin], the IC50 in the experiment with PARG was below 5 µM.
In the case of `Cn1c(=O)c2[nH]c(CCCC(=O)O)nc2n(C)c1=O` [JA2-2], on human PARG (setting [1]), the IC50 was above 100 µM.
Turning to `O=c1[nH]c2[nH]c(=S)[nH]c(=S)c2[nH]1` [JA2-3], the IC50 was 0.1 µM at human PARG (setting [1]) and 0.1 to 1 µM on human PARG (setting [3]). Besides, the “IC50 of PARG inhibition” value on human PARG (setting [2]) is recorded as “sub-micromolar”. Besides, the “~100% PARG inhibition” value on rat PARG is “Yes”.
Consider `Cn1c(=S)[nH]c2nc(SCCN3CCCC3)[nH]c2c1=O` [JA2-4], for which the IC50 on human PARG (setting [1]) was 0.9 µM; on human PARG (setting [3]), 0.1 to 1 µM and 0.9 µM. Besides, at human PARG (setting [2]), the “IC50 of PARG inhibition” value is “sub-micromolar”.
Regarding `Cn1c(=O)c2[nH]c(SCCN3CCOCC3)nc2n(C)c1=S` [JA2-5], the IC50 at human PARG (setting [1]) is 1 µM; at human PARG (setting [3]) it was 0.1 to 1 µM. Moreover, the “IC50 of PARG inhibition” value at human PARG (setting [2]) was “sub-micromolar”. Moreover, on rat PARG, the “~100% PARG inhibition” value is reported as “Yes”.
As for `Cn1c(=O)c2c(ncn2CCCC(=O)O)n(C)c1=O` [JA2-9], the IC50 at human PARG (setting [1]) is above 100 µM.
Consider `Cn1c(=O)[nH]c2nc(SCCN3CCOCC3)[nH]c2c1=O` [JA2120], for which the IC50 on human PARG (setting [1]) and at human PARG (setting [3]) was 25.7 µM throughout.
With `Cn1c(=O)c2[nH]c(SCC(=O)OC(C)(C)C)nc2n(C)c1=O` [LPF-I-27-1], the IC50 on human PARG (setting [1]) is above 25 µM.
Take `CCOC(=O)CSc1nc2c([nH]1)c(=O)n(C)c(=O)n2C` [LPF-I-35-1]: the IC50 at human PARG (setting [1]) is above 25 µM.
On the same count and under the same terms, the same measure for `Cn1c(=O)c2[nH]c(SCc3ccccc3)nc2n(C)c1=O` [LPF-I-51-1]: above 25 µM.
On the same count and under the same terms, the same measure for `Cn1c(=O)c2[nH]c(SCc3ccc(F)cc3)nc2n(C)c1=O` [LPF-I-53-1]: 65 µM; for `Cc1ccc(CSc2nc3c([nH]2)c(=O)n(C)c(=O)n3C)cc1` [LPF-I-64-1]: above 25 µM; for `Cn1c(=O)c2[nH]c(SCc3c(Cl)cccc3Cl)nc2n(C)c1=O` [LPF-I-68-1]: above 25 µM.
With `Cn1c(=O)c2[nH]c(SCCN3C(=O)c4ccccc4C3=O)nc2n(C)c1=O` [LPF-I-81-1], the IC50 at human PARG (setting [1]) was above 25 µM.
Still for that read-out and setting: the same measure for `CCOC(=O)CCSc1nc2c([nH]1)c(=O)n(C)c(=O)n2C` [LPF-I-83-1]: above 25 µM; for `Cn1c(=S)c2[nH]c(SCCN3CCOCC3)nc2n(C)c1=O` [LPF-I-146-1]: 0.4 µM.

By IC50 is commonly meant the midpoint of a concentration-inhibition curve.
